US20260115185A1, “QUINOLINE DERIVATIVES WHICH ACT AS KAPPA-OPIOID RECEPTOR ANTAGONISTS” (The Scripps Research Institute, priority 2023, published 2026)

Tests used:
[1] = molecular target: T1, kappa opioid receptor (KOR) (Homo sapiens, UniProt P41145); experiment: OPRKappa 1 Tango B-Arrestin Assay, antagonist mode (Tango OPRK1-bla U2OS cells, U50488 EC80 challenge); type: cell-based; conditions: for Selectivity (MOR/KOR): Kappa selectivity, MOR IC50 / KOR IC50; for IC50: antagonist mode, Tango OPRK1-bla U2OS cells, 6 nM U50488 challenge
T1 construct: host or cells: U2OS (Tango OPRK1-bla U2OS)
T1 sequence (P41145 whole entry): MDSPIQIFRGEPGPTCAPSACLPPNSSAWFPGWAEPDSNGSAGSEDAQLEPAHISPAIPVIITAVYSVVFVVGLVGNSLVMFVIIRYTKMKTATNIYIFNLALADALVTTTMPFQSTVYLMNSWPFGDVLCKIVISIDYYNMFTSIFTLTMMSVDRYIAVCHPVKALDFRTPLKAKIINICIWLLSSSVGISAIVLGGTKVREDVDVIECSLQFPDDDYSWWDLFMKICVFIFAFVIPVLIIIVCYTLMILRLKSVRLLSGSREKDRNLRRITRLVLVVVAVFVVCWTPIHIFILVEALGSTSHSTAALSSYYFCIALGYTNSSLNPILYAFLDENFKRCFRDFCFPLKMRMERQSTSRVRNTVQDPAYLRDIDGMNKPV
Source text: OPRKappa 1 Tango B-Arrestin Assay Protocol-Antagonist Mode. […] The assay uses Tango OPRK1-bla U2OS cells which express OPRK1 linked to a GAL4-VP16 transcription factor via a TEV protease site. The cells also express a β-arrestin/TEV protease fusion protein and a β-lactamase (BLA) reporter gene under the control of a UAS response element. Stimulation of the OPRK1 receptor by agonist causes migration of the β-arrestin fusion protein to the GPCR, and through proteolysis liberates GAL4-VP16 from the receptor. The liberated VP16-GAL4 migrates to the nucleus, where it induces transcription of the BLA gene. BLA expression is monitored by measuring fluorescence resonance energy transfer (FRET) of a cleavable, fluorogenic, cell-permeable BLA substrate. As designed, test compounds that are OPRK1 antagonists inhibit agonist activation and migration of the fusion protein, thus preventing proteolysis of GAL4-VP16 and BLA transcription, leading to no increase in well FRET. Compounds were tested in quadruplicate using a 10-point, 1:3 dilution series starting at a nominal concentration of 10 micromolar.
The Tango OPRK1-U20S Dividing cell line was routinely cultured in 150 mm dishes at 37C, 5% CO2 and 95% relative humidity (RH).
On Day 1 of the assay, 16,000 cells in 10 μL of assay media (DMEM-Glutamax—with Sodium Pyruvate, 10% fetal bovine serum stripped with charcoal-dextran (CDS), 25 mM HEPES, 0.1 mM non-essential amino acids, antibiotic mix (penicillin streptomycin)) were seeded into each well of a 384 Greiner 788092 black low profile, clear bottom, low volume plate, and incubated 16-24 hours at 37° C., 5% CO2 and 95% (RH).
On Day 2, 50 nL of test compound in DMSO was added to the appropriate wells and plates were incubated for 30 min at 37° C. 5% CO2 and 95% (RH). Next was added 0.65 μL of commercially available U50488 OPRK1 agonist or DMSO in assay media: this EC80 Challenge consists of 0.6 μL of 111 nM U50488 to yield a final assay concentration of 6 nM). After incubation for 4 hours at 37° C., 5% CO2 and 95% (RH), 2.5 μL of LiveBLazer™FRET B/G (CCF4-AM) Mix (Soln.'s A,B,C,&D) was added to each well and incubated at room temperature in the dark for 2 hours. Well fluorescence was measured on Perkin Elmer's Envision using an Excitation filter 409 nm, Emission filters at 460 nm and […], bottom read.
(§1) The Percent Inhibition was calculated from the median ratio as follows:
• Tango™OPRK1-bla U20S Cells (Invitrogen K1576) • McCoy's 5A Medium, (Invitrogen 16600-082) • Dialyzed Fetal Bovine Serum, (Invitrogen 26400-036) • Non Essential Amino Acids 100× (Invitrogen part 11140-050) • HEPES (pH 7.3) 1M, (Invitrogen 15630-080) • Sodium Pyruvate 100× (Invitrogen 11360-070) • Penicillin Streptomycin, (Invitrogen 15640) • Trypsin 0.25% EDTA (Invitrogen 25200056) • DPBS without Calcium/Magnesium (Invitrogen 14190-136) • DMEM, High Glucose, GlutaMAX (Invitrogen 10569-010) • Fetal Bovine Serum, Charcoal Stripped (Invitrogen 12676-011) • DMSO Dry (Sigma D2650) • U50488 OPRK1 Agonist MW410.29 (Tocris 67198-19-0) • GNTI dihydrochloride OPRK1 Antagonist MW571.5 (Tocris 1282) • Nor-Binaltorphimine dihydrochloridc MW770.75 (Tocris 0347)
LiveBLAzere™-FRET/BG Loading Mix: (Invitrogen K1030 (5 mg)), composed of Solutions A, B, C, and D: • Solution A (6 μL): LiveBLAzer™-FRET/BG Substrate (CCF4-AM) • Solution B (60 μL) • Solution C (904 μL) • Solution C (must add 250 μl of 1N NaOH to 45 mL of Solution C prior to use) • Solution D (30 μL) [Probinicid] (Sigma P8161) make 200 mM stock in NaOH—H2O.

mu opioid receptor (MOR) = molecular target: T2, mu opioid receptor (MOR) (Homo sapiens, UniProt P35372); experiment: OPRMu1 Discover X β-arrestin Assay, antagonist mode (U2OS cells, DAMGO EC80 challenge); type: cell-based
T2 construct: host or cells: U2OS (Discover X OPRMu1-U2OS, PathHunter)
T2 sequence (P35372 whole entry): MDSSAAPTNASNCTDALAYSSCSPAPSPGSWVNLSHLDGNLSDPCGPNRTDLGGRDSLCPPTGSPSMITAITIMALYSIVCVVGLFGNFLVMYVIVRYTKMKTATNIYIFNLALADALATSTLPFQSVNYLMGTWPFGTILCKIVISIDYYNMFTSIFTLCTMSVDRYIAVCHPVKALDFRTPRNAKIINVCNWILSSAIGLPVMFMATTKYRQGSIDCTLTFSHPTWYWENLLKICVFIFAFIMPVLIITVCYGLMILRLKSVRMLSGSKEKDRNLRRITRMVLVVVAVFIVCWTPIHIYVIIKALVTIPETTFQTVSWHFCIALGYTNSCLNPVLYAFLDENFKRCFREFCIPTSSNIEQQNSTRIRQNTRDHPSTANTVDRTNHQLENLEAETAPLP
Source text: OPRMu1 Discover X—β-arrestin Assay—Antagonist Mode. […] This assay evaluates the OPRMu1 activation in membrane recruitment of β-arrestin. In addition, the assay evaluates GPCR-β-arrestin proximity using low affinity fragment complementation of beta-galactosidase (beta-gal). The assay employs U20S cells, which express OPRMu1 fused to the complementary beta-gal fragment (enzyme acceptor). As designed, compounds that act as antagonists will prevent receptor activation resulting in reduced well luminescence. Compounds were tested in quadruplicate using a 10-point, 1:3 dilution series starting at a nominal concentration of 10 micromolar.
The Discover X OPRMu1-U20S cell line was cultured in 150 mm dishes at 37° C., 5% CO2 and 95% relative humidity (RH).
On Day 1 of the assay, 5000 cells in 20 μL of assay buffer (Discover X's Cell Plating Reagent 5) were seeded into each well of a 384 Corning 3570 standard white plate, and incubated 16-24 hours at 37° C., 5% CO2 and 95% RH.
On Day 2, 100 nL of test compound in DMSO were added to the appropriate wells and the plates were then incubated for 30 min at 37° C. 5% CO2 and 95% RH. Next, 2.2 μL of DAMGO OPRMu1 agonist (commercially available) or DMSO in assay media. (The EC80 Challenge consists of 1.8 μL of 3.7 μM DAMGO, 0.4 μL of Assay Buffer, with a final assay concentration of 303 nM). After incubation for 3 hours at 37° C. 5% CO2, and 95% RH, 10 μL of Path Hunter Detection Mix was added to each well, and the plate was then incubated at room temperature in the dark for 1 hour. Well luminescence was measured on Perkin Elmer's Envision.
as §1
• DMEM Medium, (Invitrogen 11965) • F12 Medium, (Invitrogen 11765) • Heat Inactivated Fetal Bovine Serum, (Invitrogen 10082147) • Non Essential Amino Acids 100× (Invitrogen 11140-050) • HEPES (pH 7.3) 1M, (Invitrogen 15630-080) • Sodium Pyruvate 100× (Invitrogen 11360-070) • Penicillin Streptomycin, (Invitrogen 15640) • Trypsin 0.25% EDTA (Invitrogen 25200056) • DPBS without Calcium/Magnesium (Invitrogen 14190-136) • DMSO Dry (Sigma D2650) • DAMGO OPRMu1 Agonist MW513.19 (Sigma E7384-5MG) • B-Funaltrexamine Hydrochloride OPRM1 Antagonist MW (SIGMA 0003-2MG) • PathHunter Cell Plating 5 Reagent (Discover X 93-0563R5A) • Corning 3750 Standard 384 well white plate with lid.
PathHunter Detection Mix (DiscoverX 93-0001): 1 part Galacton Star/5 parts Emerald II/19 parts PH Cell Assay Buffer.

IC50 [1] [nM] | IC50 (mu opioid receptor (MOR)) [nM] | Structure (SMILES) | Selectivity (MOR/KOR) [1]
1 to 10 | > 1000 | CCc1cc(F)c2nc(N3CCN(C4CCOCC4)C[C@@H]3C)c(-c3nc(C)no3)c(C)c2c1 (single isomer, unassigned) [Compound 28] | ++++ (more than 1000-fold selectivity over MOR)
≥ 100 | > 1000 | CCc1cc(F)c2nc(N3CC[C@H](NC4CCOCC4)[C@H](F)C3)c(-c3cc(C(F)(F)F)n(C)n3)c(C)c2c1 (stereo in doubt) [Compound 83] | +++ (between 100- to 1000-fold selective)
≥ 100 | > 1000 | CCc1cc(F)c2nc(N3CC[C@@H]4[C@@H](CCN4C[C@@H]4CCOC4)C3)c(-c3ccn(C)n3)c(C)c2c1 (stereo in doubt) [Compound 127] | +++ (between 100- to 1000-fold selective)
10 to 100 | > 1000 | CCc1cc(F)c2nc(N3CC[C@H]4[C@H](CCN4C[C@@H]4CCOC4)C3)c(-c3ccn(C)n3)c(C)c2c1 (stereo in doubt) [Compound 129] | ++ (between 10- and 100-fold selectivity)
1 to 10 | > 1000 | CCc1cc(F)c2nc(N3CCN(C(=O)[C@H](C)N4CC[C@@H](F)C4)C[C@H]3C)c(-c3nc(C)no3)c(C)c2c1 (stereo in doubt) [Compound 151] | +++ (between 100- to 1000-fold selective)
1 to 10 | > 1000 | CCc1cc(-c2ccnn2C)c2nc(N3CC[C@H](NC4CCOCC4)[C@H](F)C3)c(-c3ccn(C)n3)c(C)c2c1 [Compound 1, (3R,4S)-1-(6-ethyl-4-methyl-3-(1-methyl-1H-pyrazol-3-yl)-8-(1-methyl-1H-pyrazol-5-yl)quinolin-2-yl)-3-fluoro-N-(tetrahydro-2H-pyran-4-yl)piperidin-4-amine] | +++ (between 100- to 1000-fold selective)
1 to 10 | > 1000 | CCc1cc(F)c2nc(N3CCN(CC4CCOCC4)C[C@H]3C)c(-c3ccn(C)n3)c(C)c2c1 [Compound 2, (R)-6-ethyl-8-fluoro-4-methyl-3-(1-methyl-1H-pyrazol-3-yl)-2-(2-methyl-4-((tetrahydro-2H-pyran-4-yl)methyl)piperazin-1-yl)quinoline] | +++ (between 100- to 1000-fold selective)
1 to 10 | 100 to 1000 | CCc1cc(F)c2nc(N3CCC(N[C@H]4CCOC[C@@H]4F)CC3)c(-c3cc(C)n(C)n3)c(C)c2c1 [Compound 3, 1-(3-(1,5-dimethyl-1H-pyrazol-3-yl)-6-ethyl-8-fluoro-4-methylquinolin-2-yl)-N-((3R,4S)-3-fluorotetrahydro-2H-pyran-4-yl)piperidin-4-amine] | +++ (between 100- to 1000-fold selective)
10 to 100 | 100 to 1000 | CCc1cc(F)c2nc(N3CCC(N[C@@H]4CCOC[C@H]4F)CC3)c(-c3cc(C)n(C)n3)c(C)c2c1 [Compound 4, 1-(3-(1,5-dimethyl-1H-pyrazol-3-yl)-6-ethyl-8-fluoro-4-methylquinolin-2-yl)-N-((3S,4R)-3-fluorotetrahydro-2H-pyran-4-yl)piperidin-4-amine] | ++ (between 10- and 100-fold selectivity)
1 to 10 | 100 to 1000 | CCc1cc(F)c2nc(N3CCC(N[C@H]4CCOC[C@H]4F)CC3)c(-c3cc(C)n(C)n3)c(C)c2c1 [Compound 5, 1-(3-(1,5-dimethyl-1H-pyrazol-3-yl)-6-ethyl-8-fluoro-4-methylquinolin-2-yl)-N-((3S,4S)-3-fluorotetrahydro-2H-pyran-4-yl)piperidin-4-amine] | +++ (between 100- to 1000-fold selective)
< 1 | 100 to 1000 | CCc1cc(-c2ccnn2C)c2nc(N3CCC(N[C@H]4CCOC[C@@H]4F)CC3)c(-c3ccn(C)n3)c(C)c2c1 [Compound 9, 1-(6-ethyl-4-methyl-3-(1-methyl-1H-pyrazol-3-yl)-8-(1-methyl-1H-pyrazol-5-yl)quinolin-2-yl)-N-((3R,4S)-3-fluorotetrahydro-2H-pyran-4-yl)piperidin-4-amine] | +++ (between 100- to 1000-fold selective)
≥ 100 | > 1000 | CCN/C(=N/C#N)N1CCN(c2nc3c(F)cc(CC)cc3c(C)c2-c2ccn(C)n2)[C@H](C)C1 [Compound 10, (R,E)-N′-cyano-N-ethyl-4-(6-ethyl-8-fluoro-4-methyl-3-(1-methyl-1H-pyrazol-3-yl)quinolin-2-yl)-3-methylpiperazine-1-carboximidamide] | ++ (between 10- and 100-fold selectivity)
10 to 100 | 1 to 10 | CCc1cc(F)c2nc(N3CCN(/C(=N\C#N)NC4CCOCC4)C[C@H]3C)c(-c3ccn(C)n3)c(C)c2c1 [Compound 11, (R,E)-N′-cyano-4-(6-ethyl-8-fluoro-4-methyl-3-(1-methyl-1H-pyrazol-3-yl)quinolin-2-yl)-3-methyl-N-(tetrahydro-2H-pyran-4-yl)piperazine-1-carboximidamide] | ++ (between 10- and 100-fold selectivity)
